Where two headings read alike, the source gives them in different places.
Tests used:
[1] = target: T1, human α1G T-type channels (Homo sapiens, UniProt O43497); assay: Block of α1G T-type channels, whole-cell patch clamp in HEK cells; format: cell-based; settings: test pulse −40 mV
T1 construct: expressed in transfected cells
Experimental: Standard patch-clamp techniques were employed to identify blockers of T-type currents. Briefly, previously described HEK cell lines stably expressing human α1G T-type channels were used for all the recordings (passage #: 4-20, 37° C., 5% CO2). To obtain T-type currents, plastic dishes containing semi-confluent cells were positioned on the stage of a ZEISS AXIOVERT S100 microscope after replacing the culture medium with external solution (Table 3). Whole-cell patches were obtained using pipettes (borosilicate glass with filament, O.D.: 1.5 mm, I.D.: 0.86 mm, 10 cm length), fabricated on a SUTTER P-97 puller with resistance values of ˜5 MΩ (Table 4 ).
T-type currents were reliably obtained by using two voltage protocols: “non-inactivating”, and “inactivation”. In the non-inactivating protocol, the holding potential is set at −110 mV and with a pre-pulse at −100 mV for 1 second prior to the test pulse at −40 mV for 50 ms. In the inactivation protocol, the pre-pulse is at approximately −85 mV for 1 second, which inactivates about ^15% of the T-type channels.
Test compounds were dissolved in external solution, 0.1-0.01% DMSO. After ˜10 min rest, they were applied by gravity close to the cell using a WPI microfil tubing. The “non-inactivated” pre-pulse was used to examine the resting block of a compound. The “inactivated” protocol was employed to study voltage-dependent block. However, the initial data shown below were mainly obtained using the non-inactivated protocol only. IC50 values are shown for various compounds of the invention in Table 5.

[2] = target: T2, P/Q-type channels (α1A+α2δ+β1b cDNA subunits) (Homo sapiens, UniProt O00555); assay: Selectivity for N-type over P/Q-type channels, whole cell patch recordings in HEK 293 cells; format: cell-based
T2 construct: expressed in transfected cells; host or cells: HEK 293 (human embryonic kidney cells)
Experimental: (§1) Calcium channel blocking activity was measured using whole cell patch recordings on human embryonic kidney cells transiently expressing rat α1B+α2δ+β1b channels (N-type channels) with 5 mM barium as a charge carrier. Channel block was also measured in P/Q-type channels (α1A+α2δ+β1b cDNA subunits) and L-type channels (α1C+α2δ+β1b cDNA subunits).
(§2) HEK 293 Host cells (ATCC# CRL 1573) were grown in standard DMEM medium supplemented with 2 mM glutamine and 10% fetal bovine serum. HEK 293 cells were transfected by a standard calcium-phosphate-DNA coprecipitation method using the rat α1B+β1b+α2δ N-type calcium channel subunits in a vertebrate expression vector (for example, see Current Protocols in Molecular Biology).
(§3) After an incubation period of 24 to 72 hours, the culture medium was removed and replaced with external recording solution (see below). Whole cell patch clamp experiments were performed using an Axopatch 200B amplifier (Axon Instruments, Burlingame, Calif.) linked to an IBM compatible personal computer equipped with pCLAMP software. Borosilicate glass patch pipettes (Sutter Instrument Co., Novato, Calif.) were polished (Microforge, Narishige, Japan) to a resistance of about 4 MΩ when filled with cesium methanesulfonate internal solution (composition in MM: 109 CsCH3 SO4, 4 MgCl2, 9 EGTA, 9 HEPES, pH 7.2). Cells were bathed in 5 mM Ba^++ (in mM: 5 BaCl2, 1 MgCl2, 10 HEPES, 40 tetraethylammonium chloride, 10 glucose, 87.5 CsCl pH 7.2). Current data shown were elicited by a train of 100 ms test pulses at 0.066 Hz from −100 mV and/or −80 mV to various potentials (min. −20 mV, max. +30 mV). Drugs were perfused directly into the vicinity of the cells, using a microperfusion system.
(§4) Normalized dose-response curves were fit (Sigmaplot 4.0, SPSS Inc., Chicago, Ill.) by the Hill equation to determine IC50 values. Steady-state inactivation curves were plotted as the normalized test pulse amplitude following 5 s inactivating prepulses at +10 mV increments. Inactivation curves were fit (Sigmaplot 4.0) with the Boltzman equation, Ipeak (normalized)=1/(1+exp((V-Vh)z/25.6)), where V and Vh are the conditioning and half inactivation potentials, respectively, and z is the slope factor.
(§5) The same protocol was followed for cell lines expressing P/Q-type channels and L-type channels.

[3] = target: T3, L-type channels (α1C+α2δ+β1b cDNA subunits) (Homo sapiens, UniProt Q13936); assay: Selectivity for N-type over L-type channels, whole cell patch recordings in HEK 293 cells; format: cell-based
T3 construct: expressed in transfected cells; host or cells: HEK 293 (human embryonic kidney cells)
Experimental: as §1, §2, §3, §4, §5

[4] = tested on: rat formalin model (paw flinches); assay: Formalin-induced pain model; format: in vivo; settings: 30 mg/kg IP, 10 minutes prior to formalin, saline control=100%
Experimental: […] The compounds were reconstituted to stock solutions of approximately 10 mg/ml in propylene glycol. Eight Holtsman male rats of 275-375 g size were randomly selected per test article.
The following study groups in Table 6 were used, with test article, vehicle control (propylene glycol) and saline delivered intraperitoneally (IP):
Prior to initiation of drug delivery, baseline behavioral and testing data were taken.
On the morning of testing, a small metal band (0.5 g) was loosely placed around the right hind paw. The rat was placed in a cylindrical Plexiglas chamber for adaptation a minimum of 30 minutes. Test Article or Vehicle Control Article was administered 10 minutes prior to formalin injection (50 μl of 5% formalin) into the dorsal surface of the right hindpaw of the rat. The animal was then placed into the chamber of the automated formalin apparatus where movement of the formalin injected paw was monitored and the number of paw flinches tallied by minute over the next 60 minutes (Malmberg, A. B., supra).
Results are presented as Maximum Possible Effect±SEM, where saline control=100% (Table 7)

[5] = target: T4, rat brain N-type calcium channel subunits (α1B+α2δ+β1b cDNA subunits) (Rattus norvegicus, UniProt Q02294); assay: N-type calcium channel block, whole cell patch clamp in HEK 293 cells; format: cell-based; settings: holding potential −80 mV to +10 mV, 5 mM BaCl2
T4 construct: expressed in transfected cells; host or cells: HEK 293
Source text: as §4
The methods of Example 11 were followed with slight modifications as will be apparent from the description below.
N-type calcium channel blocking activity was assayed in human embryonic kidney cells, HEK 293, stably transfected with the rat brain N-type calcium channel subunits (α1B+α2δ+β1b cDNA subunits). Briefly, cells were cultured in Dulbecco's modified eagle medium (DMEM) supplemented with 10% fetal bovine serum, 200 U/ml penicillin and 0.2 mg/ml streptomycin at 37° C. with 5% CO2. At 85% confluency, cells were split with 0.25% trypsin/1 mM EDTA and plated at 10% confluency on glass coverslips. At 12 hours the medium was. replaced and the cells transfected using a standard calcium phosphate protocol and the appropriate calcium channel cDNAs. Fresh DMEM was supplied and the cells transferred to 28° C./5% CO2. Cells were incubated for 1 to 2 days to whole cell recording.
Whole cell patch clamp experiments were performed using an Axopatch 200B amplifier (Axon Instruments, Burlingame, Calif.) linked to a personal computer equipped with pCLAMP software. The external and internal recording solutions contained, respectively, 5 mM BaCl2, 10 mM MgCl2, 10 mM HEPES, 40 mM TEACl, 10 mM glucose, 87.5 mM CsCl (pH 7.2) and 108 mM CsMS, 4 mM MgCl2, 9 mM EGTA, 9 mM HEPES (pH 7.2). Currents were typically elicited from a holding potential of −80 mV to +10 mV using Clampex software (Axon Instruments). Typically, currents were first elicited with low frequency stimulation (0.067 Hz) and allowed to stabilize prior to application of the compounds. The compounds were then applied during the low frequency pulse trains for two to three minutes to assess tonic block, and subsequently the pulse frequency was increased to 0.2 Hz to assess frequency dependent block. Data were analyzed using Clampfit (Axon Instruments) and SigmaPlot 4.0 (Jandel Scientific).

[6] = −80 mV (inactivation protocol), read-out: IC50 at −80 mV
[7] = frequency dependent block, pulse frequency 0.2 Hz, read-out: IC50 at 0.2 Hz
[8] = tonic block, low frequency stimulation 0.067 Hz, read-out: IC50 at 0.067 Hz
[9] = −100 mV (non-inactivating protocol), read-out: IC50 at −100 mV

T1 sequence (O43497 whole entry): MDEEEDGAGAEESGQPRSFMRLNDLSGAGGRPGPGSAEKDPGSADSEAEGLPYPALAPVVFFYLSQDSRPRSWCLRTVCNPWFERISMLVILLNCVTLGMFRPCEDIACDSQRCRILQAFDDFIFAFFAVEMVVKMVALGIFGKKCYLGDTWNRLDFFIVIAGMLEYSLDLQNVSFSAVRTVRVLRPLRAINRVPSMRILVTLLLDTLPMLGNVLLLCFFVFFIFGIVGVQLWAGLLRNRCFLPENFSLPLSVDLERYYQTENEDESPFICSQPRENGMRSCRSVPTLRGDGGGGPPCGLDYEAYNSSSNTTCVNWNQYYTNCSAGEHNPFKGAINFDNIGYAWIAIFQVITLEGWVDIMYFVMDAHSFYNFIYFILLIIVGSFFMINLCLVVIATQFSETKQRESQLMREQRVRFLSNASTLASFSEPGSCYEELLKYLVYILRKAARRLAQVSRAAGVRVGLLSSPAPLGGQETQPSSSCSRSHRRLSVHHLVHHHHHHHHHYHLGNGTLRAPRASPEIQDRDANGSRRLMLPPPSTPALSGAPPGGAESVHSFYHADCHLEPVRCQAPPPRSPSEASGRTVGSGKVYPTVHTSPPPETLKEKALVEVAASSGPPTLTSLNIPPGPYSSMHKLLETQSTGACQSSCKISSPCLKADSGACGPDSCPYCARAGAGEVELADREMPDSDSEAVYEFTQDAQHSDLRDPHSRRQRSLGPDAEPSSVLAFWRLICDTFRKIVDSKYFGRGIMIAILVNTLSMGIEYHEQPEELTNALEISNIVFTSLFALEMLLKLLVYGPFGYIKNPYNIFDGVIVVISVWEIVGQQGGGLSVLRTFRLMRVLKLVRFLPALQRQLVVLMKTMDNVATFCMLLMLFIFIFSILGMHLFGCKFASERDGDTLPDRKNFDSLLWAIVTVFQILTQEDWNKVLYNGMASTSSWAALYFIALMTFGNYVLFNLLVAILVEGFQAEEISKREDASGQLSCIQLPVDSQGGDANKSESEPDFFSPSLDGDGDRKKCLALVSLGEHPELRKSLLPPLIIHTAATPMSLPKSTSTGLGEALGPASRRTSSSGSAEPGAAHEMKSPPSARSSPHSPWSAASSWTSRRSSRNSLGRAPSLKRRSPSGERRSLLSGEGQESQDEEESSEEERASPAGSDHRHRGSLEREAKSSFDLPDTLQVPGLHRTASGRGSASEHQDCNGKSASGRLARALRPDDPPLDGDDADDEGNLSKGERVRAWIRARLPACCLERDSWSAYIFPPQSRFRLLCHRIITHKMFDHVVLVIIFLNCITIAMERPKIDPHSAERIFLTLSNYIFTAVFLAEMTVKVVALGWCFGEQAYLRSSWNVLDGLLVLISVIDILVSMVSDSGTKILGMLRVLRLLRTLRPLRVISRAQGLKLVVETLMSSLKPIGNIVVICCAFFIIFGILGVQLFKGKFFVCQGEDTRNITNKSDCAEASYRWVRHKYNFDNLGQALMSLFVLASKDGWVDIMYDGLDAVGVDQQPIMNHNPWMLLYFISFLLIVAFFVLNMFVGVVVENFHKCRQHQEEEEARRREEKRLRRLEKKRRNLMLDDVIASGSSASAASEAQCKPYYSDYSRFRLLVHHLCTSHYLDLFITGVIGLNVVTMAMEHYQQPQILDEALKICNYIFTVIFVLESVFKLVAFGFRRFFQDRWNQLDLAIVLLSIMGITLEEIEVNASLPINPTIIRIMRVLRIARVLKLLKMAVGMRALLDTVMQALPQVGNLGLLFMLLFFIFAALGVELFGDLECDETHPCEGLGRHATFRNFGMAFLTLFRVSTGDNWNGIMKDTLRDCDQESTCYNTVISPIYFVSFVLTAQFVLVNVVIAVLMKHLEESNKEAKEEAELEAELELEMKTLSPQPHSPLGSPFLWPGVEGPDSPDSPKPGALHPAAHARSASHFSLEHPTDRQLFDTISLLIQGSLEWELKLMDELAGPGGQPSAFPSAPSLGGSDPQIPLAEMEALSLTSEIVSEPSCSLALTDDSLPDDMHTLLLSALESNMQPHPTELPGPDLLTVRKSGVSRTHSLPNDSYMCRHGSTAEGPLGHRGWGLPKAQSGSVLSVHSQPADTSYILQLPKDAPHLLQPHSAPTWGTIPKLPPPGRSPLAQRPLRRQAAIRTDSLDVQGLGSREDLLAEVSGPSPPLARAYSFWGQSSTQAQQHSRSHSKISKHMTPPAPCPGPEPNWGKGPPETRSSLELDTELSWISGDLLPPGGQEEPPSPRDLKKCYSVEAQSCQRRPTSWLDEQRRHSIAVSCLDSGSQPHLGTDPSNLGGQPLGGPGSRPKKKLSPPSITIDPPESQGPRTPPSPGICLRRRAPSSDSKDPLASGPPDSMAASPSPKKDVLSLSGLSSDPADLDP

SMILES | IC50 [1, 6] [nM] | selectivity for N-type over P/Q-type channels [2] | selectivity for N-type over L-type channels [3] [fold] | IC50 [5, 7] [nM] | IC50 [5, 8] [nM] | IC50 [1, 9] [nM] | IC50 at −80 mV ([1]; −80 mV (inactivation protocol)) | IC50 at −100 mV ([1]; −100 mV (non-inactivating protocol)) | Maximum Possible Effect ± SEM, Phase I ([4]; Phase I) [%] | Maximum Possible Effect ± SEM, Phase II ([4]; Phase II) [%] | Maximum Possible Effect ± SEM, Phase IIA ([4]; Phase IIA) [%]
CN(C(=O)CC(c1ccccc1)c1ccccc1)[C@H]1CCN(C(c2ccccc2)c2ccccc2)C1 [Compound P6, (S)-N-(1-Benzhydryl-pyrrolidin-3-yl)-N-methyl-3,3-diphenyl-propionamide] | 455 | – | – | 365 | 638 | 1160 | – | – | – | – | –
CN(C(=O)CC(c1ccccc1)c1ccccc1)[C@@H]1CCN(Cc2cccnc2)C1 [Compound P8, (R)-N-Methyl-3,3-diphenyl-N-(1-pyridin-3-ylmethyl-pyrrolidin-3-yl)-propionamide] | – | – | – | 987 | 3000 | – | No block | No block | – | – | –
CN(C(=O)CC(c1ccccc1)c1ccccc1)[C@@H]1CCN(Cc2ccccn2)C1 [Compound P9, (R)-N-Methyl-3,3-diphenyl-N-(1-pyridin-2-ylmethyl-pyrrolidin-3-yl)-propionamide] | 160 to 2400 | – | – | 617 | 1300 | 150 to 4500 | – | – | – | – | –
CN(C(=O)CC(c1ccccc1)c1ccccc1)[C@@H]1CCN(C(c2ccccc2)c2ccncc2)C1 (stereo partly drawn) [Compound P10, (R)-N-Methyl-3,3-diphenyl-N-[1-(phenyl-pyridin-4-yl-methyl)-pyrrolidin-3-yl]-propionamide] | 882 | – | – | 520 | 714 | 3460 | – | – | – | – | –
CN(C(=O)CC(c1ccccc1)c1ccccc1)[C@H]1CCN(Cc2ccncc2)C1 [Compound P13, (S)-N-Methyl-3,3-diphenyl-N-(1-pyridin-4-ylmethyl-pyrrolidin-3-yl)-propionamide] | 488 | – | – | 471 | 913 | 5000 | – | – | – | – | –
CN(C(=O)NC(c1ccccc1)c1ccccc1)[C@H]1CCN(C(c2ccccc2)c2ccccc2)C1 [Compound P16, (S)-3-Benzhydryl-1-(1-benzhydryl-pyrrolidin-3-yl)-1-methyl-urea] | 926 | – | – | 601 | 1030 | 2200 | – | – | – | – | –

Stronger by IC50 [5, 7], values ahead:

IC50 [1, 6] [nM] | selectivity for N-type over P/Q-type channels [2] | selectivity for N-type over L-type channels [3] [fold] | IC50 [5, 7] [nM] | IC50 [5, 8] [nM] | IC50 [1, 9] [nM] | IC50 at −80 mV ([1]; −80 mV (inactivation protocol)) | IC50 at −100 mV ([1]; −100 mV (non-inactivating protocol)) | SMILES | Maximum Possible Effect ± SEM, Phase I ([4]; Phase I) [%] | Maximum Possible Effect ± SEM, Phase II ([4]; Phase II) [%] | Maximum Possible Effect ± SEM, Phase IIA ([4]; Phase IIA) [%]
374 | – | – | 302 | 386 | 1800 | – | – | CN(C(=O)CC(c1ccccc1)c1ccccc1)[C@@H]1CCN(C(c2ccccc2)c2cccnc2)C1 (stereo partly drawn) [Compound P11, (R)-N-Methyl-3,3-diphenyl-N-[1-(phenyl-pyridin-3-yl-methyl)-pyrrolidin-3-yl]-propionamide] | – | – | –
335 | – | – | 285 | 362 | 647 | – | – | CN(C(=O)CC(c1ccccc1)c1ccccc1)[C@@H]1CCN(C(c2ccccc2)c2ccccn2)C1 (stereo partly drawn) [Compound P12, (R)-N-Methyl-3,3-diphenyl-N-[1-(phenyl-pyridin-2-yl-methyl)-pyrrolidin-3-yl]-propionamide] | – | – | –
99 | – | – | 252 | 366 | 609 | – | – | CN(C(=O)CN(c1ccccc1)c1ccccc1)[C@H]1CCN(C(c2ccccc2)c2ccccc2)C1 [Compound P14, (S)-N-(1-Benzhydryl-pyrrolidin-3-yl)-2-diphenylamino-N-methyl-acetamide] | – | – | –
115 | – | – | 216 | 287 | 692 | – | – | CN(CC(=O)N(c1ccccc1)c1ccccc1)[C@H]1CCN(C(c2ccccc2)c2ccccc2)C1 [Compound P15, (S)-2-[(1-Benzhydryl-pyrrolidin-3-yl)-methyl-amino]-N,N-diphenyl-acetamide] | – | – | –
8 | approximately 23 fold | ~75 | 91 | 120 | – | – | – | COc1c(C(C)(C)C)cc(C(=O)N(C)[C@@H]2CCN(C(=O)CCCCC(c3ccc(F)cc3)c3ccc(F)cc3)C2)cc1C(C)(C)C [Compound P1, (R)—N-{1-[6,6-Bis-(4-fluoro-phenyl)-hexanoyl]-pyrrolidin-3-yl}-3,5-di-tert-butyl-4-methoxy-N-methyl-benzamide] | 94 ± 11 | 79 ± 14 | 72 ± 16
364 | – | – | 44 | 112 | 910 | – | – | CN(C(=O)CC(c1ccccc1)c1ccccc1)[C@@H]1CCN(C(c2ccccc2)c2ccccc2)C1 [Compound P3, (R)-N-(1-Benzhydryl-pyrrolidin-3-yl)-N-methyl-3,3-diphenyl-propionamide] | – | – | –
